From US20020155172A1, “Methods and compounds for decreasing cell toxicity or death” (priority 2000, published 2002)

Key:
[1] = test system: GST-Q19, GST-Q62, and GST-Q81; experiment: Chemical absorption assay, polyglutamine repeat length; format: binding; settings: 10 μg/ml Congo red in PBS; equal protein concentrations
Protocol: FIG. 6A is a graph of the percent of binding of Congo red to expanded polyglutamine repeats Q81, Q62, and Q19.
To determine if Congo red and its derivatives directly bind to expanded polyglutamine aggregates, we designed a chemical absorption assay. This assay measures the remaining Congo red in the supernatant after incubating the supernatant with GST-tagged polyglutamine beads, and removing the GST-polyglutamine beads by centrifugation. This assay was carried out as follows. Recombinant protein GST-Q19, GST-Q62, and GST-Q81 (containing 19, 62, and 81 polyglutamines, respectively) was purified from E. coli by glutathione beads. After several washes with PBS containing protease inhibitors, the beads were allowed to settle to the bottom of the tube at 24° C. for 10 minutes. The polyglutamine-bound beads were aliquoted and diluted with two volumes of 10 μg/ml of Congo red in PBS. The beads were mixed and centrifuged at 15,000 rpm for 2 minutes and the supernatant was removed and diluted 1:100. The percentage absorbance of the compound remaining in the supernatant after absorption with the GST-polyQ beads was then detected. In addition, Congo red- or PBS-only treated polyglutamine polypeptide bead pellets were washed three times with 100 volumes of PBS and then the protein was separated by 12% polyacrylamide gels and immunoblotted as mentioned above. […]

HD transgenic mice (R62) = experiment: Fasting glucose levels in blood; format: in vivo; settings: 6 hours of fasting, intraperitoneal delivery
Source text: FIG. 10B is a table showing the effect of intraperitoneal delivery of Congo red or PBS (vehicle) on fasting glucose levels in wild-type (WT) or HD transgenic mice.
In addition, the ability of Congo red to inhibit the formation as well as to disrupt preformed polyglutamine oligomers allowed us to examine the role of polyglutamine aggregates in neuronal dysfunction and degeneration characteristic of polyglutamine expansion diseases. In these studies, we used the animal model of Huntington's disease (R62), which expresses the truncated form of huntingtin with 139 CAG repeats Mangiarini et al. (supra). We took advantage of our finding that in addition to inhibiting polyglutamine oligomerization, Congo red also disrupts pre-formed oligomers, thus allowing assessment of the impact of Congo red on disease progression after formation of polyglutamine aggregates and the onset of symptoms. R62 transgenic mice and CBAxC57B1/6 F1 wild type littermates were obtained from Jackson Laboratories (Bar Harbor, Me.) at the age of five weeks. […]
R62 mice also develop severe diabetes due to the presence of polyglutamine aggregates in the pancreas. […] The levels of glucose in the blood after 6 hours of fasting were measured from the serum using the Accu-Check strip kit (Roche, Co.).

[2] = test system: neuroblastoma (SHSY) cells transfected with Q79-GFP; experiment: Expanded polyglutamine aggregation and cell death in neuroblastoma (SHSY) cells; format: cell-based; settings: Congo red 1.5 to 100 nM
Protocol: Cells, including neuroblastoma cells, HeLa cells, primary neuronal cells, and primary embryonic neuronal cells were transiently transfected with the plasmid […]-GFP, encoding 79 glutamines followed by the jellyfish green fluorescent protein (Sanchez et al., supra). Expression of […]-GFP was observed 48 or 72 hours after transfection by visual inspection of GFP-positive cells using an inverted fluorescence microscope. In a cell expressing […]-GFP polypeptides, polyglutamine aggregates are formed and the cell dies by apoptosis (Sanchez, supra). Cell viability was determined by morphological criteria characteristic of apoptosis, including cell blebbing, shrinking. Total cell lysates and tissue homogenates were obtained using Buffer A: 1% triton in PBS, containing 10 μg/ml DNAse and protease inhibitors; leupeptin 20 μg/ml, aprotinin 20 u/ml, and PMSF 100 mM. […] These effects were determined by visual inspection of GFP-positive cells under an inverted fluorescence microscope. […] Cells expressing […]-GFP were incubated in cell culture media containing Congo red and evaluated for the effect of Congo red on polyglutamine aggregation and cell death. […] The cells were then scored the presence of visible oligomers by fluorescence microscopy. Cells in which oligomers were not detected at this level of resolution were scored as cells lacking polyglutamine aggregates. […]

## Nc1c(/N=N/c2ccc(-c3ccc(/N=N/c4cc(S(=O)(=O)O)c5ccccc5c4N)cc3)cc2)cc(S(=O)(=O)O)c2ccccc12 [Congo red, diphenyldiazo-bis-alpha-napthylaminesulfonate]
[1]
  affinity for polyglutamine repeats Q81 or Q62 compared to Q19: significantly higher affinity for expanded polyglutamine repeats that were 81 or 62 polyglutamines in length
HD transgenic mice (R62)
  fasting glucose levels in blood: reduced the fasting glucose levels in blood
[2]
  cell death: significantly reduced cell death
  formation of polyglutamine aggregates: inhibited the formation of polyglutamine aggregates
